Columns and labels:
[1] = target: p300 HAT domain (residues 1287-1666) (Homo sapiens (Human), UniProt Q09472); assay: p300 HAT SPA assay (scintillation proximity assay, acetylation of biotinylated H3(1-21) peptide); assay type: biochemical; conditions: p300 HAT domain; average of at least 2 replicate titrations; read-out: P300 HAT SPA IC50
Summary of the method: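 Scintillation proximity readout of acetylated biotin-H3(1-21) captured on streptavidin plates after 1.5 hr at RT; enzyme was Ni2+/anion-exchange-purified HAT domain in 20 mM Hepes pH 7.5. Inhibitor IC50s calculated from the data.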

[2] = system: acetylation of chromatin at H3K18 (catalyzed by p300 and CBP) in HCT-116 cells; assay: H3K18Ac MSD cellular assay; assay type: cell-based; conditions: 2 hr treatment, average of at least 2 replicate titrations
Procedure: Select compounds were also evaluated in a H3K18Ac MSD cellular assay that measures the ability of compounds to inhibit the acetylation of chromatin at H3K18, a process catalyzed by p300 and CBP. In a typical experiment the p300 HAT inhibitory activity inside cells of the compounds described herein was determined in accordance with the following experimental method. 20 k HCT-116 cells per well are plated in 75 μL RPMI+10% FBS media the night before treatment. Compounds plated in DMSO at 4× final concentration are resuspended in 30 μL RPMI+10% FBS, then 25 μL is combined with corresponding wells containing cells. Treated cells are incubated for 2 hr at 37° C., then lysed in 500 μL final volume and frozen at −80° C. MSD plates (Meso Scale Discovery) are coated overnight at 4° C. with 60 μL 1:500α-total histone antibody (Millipore MAB3422) in PBS. Plates are then blocked with 5% BSA in TBST shaking at RT for 1 hr, washed, and 30 μL lysate added to each well for 2 hr shaking at RT. Plates are washed and 25 μL 1:216α-H3K18ac antibody (CST 9675) in PBS added, then incubated for 1 hr shaking at RT. Plates are washed again, then 25 μL 1:1000 Sulfo-Tag goat a-rabbit antibody (Meso Scale Discovery R32Ab-1) in PBS is added for 1 hr shaking at RT. Plates are washed once more, then 150 μL 1× Read Buffer (MSD #R92TD-3) is added to all wells and read on MSD SECTOR Imager 2400 using the conventional read setup.

Sequence of p300 HAT domain (residues 1287-1666) (Q09472 1287-1666): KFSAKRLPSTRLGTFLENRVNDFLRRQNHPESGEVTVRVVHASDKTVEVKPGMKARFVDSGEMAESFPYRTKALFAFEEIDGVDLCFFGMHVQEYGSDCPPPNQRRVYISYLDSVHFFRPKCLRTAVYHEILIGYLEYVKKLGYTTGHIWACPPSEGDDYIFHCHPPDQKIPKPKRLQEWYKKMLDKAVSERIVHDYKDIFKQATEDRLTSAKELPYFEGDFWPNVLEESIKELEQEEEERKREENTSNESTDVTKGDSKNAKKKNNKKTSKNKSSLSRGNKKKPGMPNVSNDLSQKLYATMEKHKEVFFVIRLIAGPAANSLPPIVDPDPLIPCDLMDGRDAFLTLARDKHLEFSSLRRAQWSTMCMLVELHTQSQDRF

| Compound | IC50 [1] | EC50 ([2]; Homo sapiens, HCT-116, 2 h) | EC50 [2] |
| --- | --- | --- | --- |
| O=C(c1c[nH]c2ccccc12)C(NCCc1ccc(Cl)cc1Cl)c1ccccc1 (single isomer, unassigned) [19 Isomer 2] | 706 nM | 282 nM | – |
| CC(CNC(C(=O)c1c[nH]c2ccccc12)c1ccccc1)c1ccc(Cl)cc1 (single isomer, unassigned) [26 Isomer 1] | > 30000 nM | – | > 10000 nM |
| CC(CNC(C(=O)c1c[nH]c2ccccc12)c1ccccc1)c1ccc(Cl)cc1 (single isomer, unassigned) [26 Isomer 2] | 4560 nM | – | 2530 nM |
| CC(CNC(C(=O)c1c[nH]c2ccccc12)c1ccccc1)c1ccc(Cl)cc1 (single isomer, unassigned) [26 Isomer 3] | 3790 nM | – | 6110 nM |
| CC(CNC(C(=O)c1c[nH]c2ccccc12)c1ccccc1)c1ccc(Cl)cc1 (single isomer, unassigned) [26 Isomer 4] | 204 nM | – | 139 nM |
| CC(Cc1ccc(Cl)cc1)NC(C(=O)c1c[nH]c2ccccc12)c1ccccc1 (single isomer, unassigned) [27 Isomer 1] | 636 nM | 681 nM | – |
| Cc1ccc(CCNC(C(=O)c2c[nH]c3ccccc23)c2ccccc2)cc1 (single isomer, unassigned) [38 Isomer 2] | 698 nM | 1690 nM | – |
| O=C(c1c[nH]c2ccccc12)C(NCCc1ccc(OC(F)(F)F)cc1)c1ccccc1 (single isomer, unassigned) [40 Isomer 2] | 1310 nM | 4010 nM | – |
| Cc1ccc2c(C(=O)C(NCCc3ccc(F)cc3)c3ccccc3)c[nH]c2c1 (single isomer, unassigned) [48 Isomer 2] | 3340 nM | 3200 nM | – |
| CCNc1ccc(CCNC(C(=O)c2c[nH]c3ccccc23)c2ccccc2)cn1 (single isomer, unassigned) [53 Isomer 2] | 4290 nM | 3470 nM | – |
| Cc1ccc2c(C(=O)C(NCCc3ccc(S(N)(=O)=O)cc3)c3ccccc3)c[nH]c2c1 (single isomer, unassigned) [56 Isomer 2] | 3100 nM | 1440 nM | – |
| N#Cc1ccc(CCNC(C(=O)c2c[nH]c3ccccc23)c2ccccc2)cc1 (single isomer, unassigned) [58 Isomer 2] | 201 nM | 477 nM | – |
| CCC(CNC(C(=O)c1c[nH]c2ccccc12)c1ccccc1)c1ccc(Cl)cc1 (single isomer, unassigned) [59 Isomer 4] | 827 nM | 829 nM | – |
| CC(=O)N1CCC(c2ccc3c(C(=O)C(NCCc4ccc(Cl)cc4)c4ccccc4)c[nH]c3c2)CC1 (single isomer, unassigned) [65 Isomer 2] | 422 nM | 71.7 nM | – |
| Cn1cc(-c2ccc3c(C(=O)C(NCCc4ccc(S(N)(=O)=O)cc4)c4ccccc4)c[nH]c3c2)cn1 (single isomer, unassigned) [66 Isomer 2] | 281 nM | 43.3 nM | – |
| Cc1cccc2c(C(=O)C(NC(C)Cc3ccc(Cl)cc3Cl)c3ccccc3)c[nH]c12 (single isomer, unassigned) [68 Isomer 1] | 728 nM | 666 nM | – |
| Cn1cc(-c2ccc3c(C(=O)C(NCCc4ccc(C#N)cc4)c4ccccc4)cnn3c2)cn1 (single isomer, unassigned) [79 Isomer 1] | – | – | 366 nM |
| Cn1cc(-c2ccc3c(C(=O)C(NCCc4ccc(C#N)cc4)c4ccccc4)cnn3c2)cn1 (single isomer, unassigned) [79 Isomer 2] | – | – | 60 nM |
| O=C(c1c[nH]c2cc(-c3ccncc3)ccc12)C(NCCc1ccc(F)cc1)c1ccccc1 (single isomer, unassigned) [82 Isomer 1] | > 30000 nM | – | 1610 nM |
| Cn1cc(-c2ccc3c(C(=O)C(NCCc4ccc(Cl)cc4)c4ccccc4)c[nH]c3c2)cn1 (single isomer, unassigned) [83 Isomer 2] | 247 nM | 74.7 nM | – |
| Cn1cc(-c2ccc3c(C(=O)C(NCCc4ccc(C#N)cc4)c4ccccc4)c[nH]c3c2)cn1 (single isomer, unassigned) [84 Isomer 2] | – | 37.5 nM | – |
| Cn1cc(-c2ccc3c(C(=O)C(NCCc4ccc(F)cc4F)c4ccccc4)c[nH]c3c2)cn1 (single isomer, unassigned) [85 Isomer 2] | 826 nM | 92.6 nM | – |
| CCn1cc(-c2ccc3c(C(=O)C(NCCc4ccc(Cl)cc4)c4ccccc4)c[nH]c3c2)cn1 (single isomer, unassigned) [86 Isomer 2] | 332 nM | 116 nM | – |

| Compound | IC50 [1] | EC50 ([2]; Homo sapiens, HCT-116, 2 h) | EC50 [2] |
| --- | --- | --- | --- |
| C[C@@H](O)CNC(=O)c1ccc2c(C(=O)C(NCCc3ccc(C#N)cc3)c3ccccc3)c[nH]c2c1 (single isomer, unassigned) [173 Isomer 1] | 1700 nM | – | – |
| C[C@@H](O)CNC(=O)c1ccc2c(C(=O)C(NCCc3ccc(C#N)cc3)c3ccccc3)c[nH]c2c1 (single isomer, unassigned) [173 Isomer 2] | 21.1 nM | – | – |
| CS(=O)(=O)CCCNC(=O)c1ccc2c(C(=O)C(NCCc3ccc(C#N)cc3)c3ccccc3)c[nH]c2c1 (single isomer, unassigned) [175 Isomer 1] | 917 nM | – | – |
| N#Cc1ccc(CCNC(C(=O)c2c[nH]c3cc(C(=O)NCCN4CCCC4)ccc23)c2ccccc2)cc1 (single isomer, unassigned) [176 Isomer 1] | 53.8 nM | – | – |
| N#Cc1ccc(CCNC(C(=O)c2c[nH]c3cc(C(=O)NCCN4CCCC4)ccc23)c2ccccc2)cc1 (single isomer, unassigned) [176 Isomer 2] | 1110 nM | – | – |
| Cn1cnc(-c2ccc3c(C(=O)[C@@H](NCCc4ccc(C(N)=O)cc4)c4ccccc4)c[nH]c3c2)c1 (single isomer, unassigned) [177 Isomer 1] | > 5000 nM | – | – |
| CN1CCC(c2ccc3c(C(=O)C(NCCc4ccc(C(N)=O)cc4)c4ccccc4)c[nH]c3c2)CC1 (single isomer, unassigned) [178 Isomer 1] | > 5000 nM | – | – |
| CN1CCC(c2ccc3c(C(=O)C(NCCc4ccc(C(N)=O)cc4)c4ccccc4)c[nH]c3c2)CC1 (single isomer, unassigned) [178 Isomer 2] | 2070 nM | – | – |
| Cn1cc(-c2ccc3c(C(=O)C(NCCc4ccc(C(N)=O)cc4)c4ccccc4)cnn3c2)cn1 (single isomer, unassigned) [179 Isomer 2] | 248 nM | – | – |
| Cn1cc(-c2ccc3c(C(=O)C(NCCc4ccc(C(N)=O)cc4)c4ccccc4)c[nH]c3c2)nn1 (single isomer, unassigned) [180 Isomer 1] | 4330 nM | – | – |
| NC(=O)c1ccc(CCNC(C(=O)c2c[nH]c3cc(-n4ccnc4)ccc23)c2ccccc2)cc1 (single isomer, unassigned) [181 Isomer 2] | > 5000 nM | – | – |
| NC(=O)c1ccc(CCNC(C(=O)c2c[nH]c3cc(-c4cnn(CCO)c4)ccc23)c2ccccc2)cc1 (single isomer, unassigned) [182 Isomer 1] | > 5000 nM | – | – |
| NC(=O)c1ccc(CCNC(C(=O)c2c[nH]c3cc(-c4cnn(CCO)c4)ccc23)c2ccccc2)cc1 (single isomer, unassigned) [182 Isomer 2] | 514 nM | – | – |
| COCCn1cc(-c2ccc3c(C(=O)C(NCCc4ccc(C(N)=O)cc4)c4ccccc4)c[nH]c3c2)cn1 (single isomer, unassigned) [183 Isomer 1] | > 5000 nM | – | – |
| COCCn1cc(-c2ccc3c(C(=O)C(NCCc4ccc(C(N)=O)cc4)c4ccccc4)c[nH]c3c2)cn1 (single isomer, unassigned) [183 Isomer 2] | 717 nM | – | – |
| Cc1nc(C(=O)C(NCCc2ccc(C(N)=O)cc2)c2ccccc2)c2ccc(-c3cnn(C)c3)cn12 (single isomer, unassigned) [184 Isomer 1] | 672 nM | – | – |
| Cc1nc(C(=O)C(NCCc2ccc(C(N)=O)cc2)c2ccccc2)c2ccc(-c3cnn(C)c3)cn12 (single isomer, unassigned) [184 Isomer 2] | 522 nM | – | – |
| O=C(c1c[nH]c2ccccc12)[C@@H](NCCc1ccc(-c2nn[nH]n2)cc1)c1ccccc1 (single isomer, unassigned) [185 Isomer 1] | 1100 nM | – | – |
| O=C(c1c[nH]c2ccccc12)[C@@H](NCCc1ccc(-c2nn[nH]n2)cc1)c1ccccc1 (single isomer, unassigned) [185 Isomer 2] | > 30000 nM | – | – |
| O=C(c1c[nH]c2ccccc12)[C@@H](NCCc1ccc(-c2nnc[nH]2)cc1)c1ccccc1 (single isomer, unassigned) [186 Isomer 1] | 1970 nM | – | – |
| O=C(c1c[nH]c2ccccc12)[C@@H](NCCc1ccc(-c2nnc[nH]2)cc1)c1ccccc1 (single isomer, unassigned) [186 Isomer 2] | 3540 nM | – | – |
| Cn1cc(-c2ccc3c(C(=O)[C@@H](NCCc4ccc(N)nc4)c4ccccc4)c[nH]c3c2)cn1 (single isomer, unassigned) [187 Isomer 1] | > 5000 nM | – | – |
| Cn1cc(-c2ccc3c(C(=O)[C@@H](NCCc4ccc(N)nc4)c4ccccc4)c[nH]c3c2)cn1 (single isomer, unassigned) [187 Isomer 2] | 793 nM | – | – |

— patent publication US11414384B2, “P300/CBP hat inhibitors” (Constellation Pharmaceuticals, Inc., priority 2018, dated 2022)
